# What was measured:
# Assay type in all cases: cell-based, human
# NCI 58 cell line panel = assay: NCI one-dose SRB assay, whole panel / subpanel summary; settings: for Mean Growth Percent: One Dose Mean Graph, 1.00E-5 Molar
# Protocol: (§1) The structures of all the newly prepared pyridine-ureas 8a–n were submitted to the National Cancer Institute (NCI) Developmental Therapeutic Program. Eight compounds 8b, 8d, 8e, 8i, 8j and 8l–n were selected to be examined for their in vitro growth inhibitory activity. The anticancer assays were carried out according to the protocol of the Drug Evaluation Branch, NCI, Bethesda. The selected pyridine-ureas were tested at one dose primary anticancer assay against a panel of approximately 58 cancer lines (concentration 10^−5 M). The tested human cancer cell lines emerged from nine different cancer subtypes: leukemia, colon, melanoma, ovarian, lung, CNS, renal, breast and prostate cancers. The sulforhodamine B (SRB) protein assay was adopted to estimate the cell viability and growth. The results were reported as mean-graph of the percentage growth of the treated cells, and presented as percentage growth inhibition (GI%) caused by the test compounds (Table 2).
# (§2) The anticancer assays were performed in accordance with the protocol of the Drug Evaluation Branch, NCI, Bethesda. A 48 h drug exposure protocol was used and sulforhodamine B (SRB) protein assay was applied to estimate the cell viability and growth, as reported earlier.
# CCRF-CEM = assay: NCI one-dose SRB assay (Leukemia); settings: for Growth Percent: 1.00E-5 Molar
# Protocol: as §1, §2
# HL-60(TB) = assay: NCI one-dose SRB assay (Leukemia); settings: for Growth Percent: 1.00E-5 Molar
# Protocol: as §1, §2
# K-562 = assay: NCI one-dose SRB assay (Leukemia); settings: for Growth Percent: K-562, 1.00E-5 Molar
# Protocol: as §1, §2
# MOLT-4 = assay: NCI one-dose SRB assay (Leukemia); settings: for Growth Percent: MOLT-4, 1.00E-5 Molar
# Protocol: as §1, §2
# RPMI-8226 = assay: NCI one-dose SRB assay (Leukemia); settings: for Growth Percent: RPMI-8226, 1.00E-5 Molar
# Protocol: as §1, §2
# SR = assay: NCI one-dose SRB assay (Leukemia); settings: for Growth Percent: 1.00E-5 Molar
# Protocol: as §1, §2
# A549/ATCC = assay: NCI one-dose SRB assay (Non-Small Cell Lung Cancer); settings: for Growth Percent: 1.00E-5 Molar
# Protocol: as §1, §2
# EKVX = assay: as above; settings: for Growth Percent: 1.00E-5 Molar
# Protocol: as §1, §2
# HOP-62 = assay: as above; settings: for Growth Percent: HOP-62, 1.00E-5 Molar
# Protocol: as §1, §2
# HOP-92 = assay: as above; settings: for Growth Percent: HOP-92, 1.00E-5 Molar
# Protocol: as §1, §2
# NCI-H226 = assay: as above; settings: for Growth Percent: NCI-H226, 1.00E-5 Molar
# Protocol: as §1, §2
# NCI-H23 = assay: as above; settings: for Growth Percent: NCI-H23, 1.00E-5 Molar
# Protocol: as §1, §2
# NCI-H322M = assay: as above; settings: for Growth Percent: 1.00E-5 Molar
# Protocol: as §1, §2
# NCI-H460 = assay: as above; settings: for Growth Percent: NCI-H460, 1.00E-5 Molar
# Protocol: as §1, §2
# NCI-H522 = assay: as above; settings: for Growth Percent: NCI-H522, 1.00E-5 Molar
# Protocol: as §1, §2
# LOX IMVI = assay: NCI one-dose SRB assay (Melanoma); settings: for Growth Percent: 1.00E-5 Molar
# Protocol: as §1, §2
# MALME-3M = assay: NCI one-dose SRB assay (Melanoma); settings: for Growth Percent: 1.00E-5 Molar
# Protocol: as §1, §2
# SK-MEL-28 = assay: NCI one-dose SRB assay (Melanoma); settings: for Growth Percent: SK-MEL-28, 1.00E-5 Molar
# Protocol: as §1, §2
# UACC-257 = assay: NCI one-dose SRB assay (Melanoma); settings: for Growth Percent: UACC-257, 1.00E-5 Molar
# Protocol: as §1, §2
# 786-0 = assay: NCI one-dose SRB assay (Renal Cancer); settings: for Growth Percent: 786-0, 1.00E-5 Molar
# Protocol: as §1, §2
# A498 = assay: NCI one-dose SRB assay (Renal Cancer); settings: for Growth Percent: A498, 1.00E-5 Molar
# Protocol: as §1, §2
# RXF 393 = assay: NCI one-dose SRB assay (Renal Cancer); settings: for Growth Percent: RXF 393, 1.00E-5 Molar
# Protocol: as §1, §2
# SN12C = assay: NCI one-dose SRB assay (Renal Cancer); settings: for Growth Percent: 1.00E-5 Molar
# Protocol: as §1, §2
# TK-10 = assay: NCI one-dose SRB assay (Renal Cancer); settings: for Growth Percent: TK-10, 1.00E-5 Molar
# Protocol: as §1, §2
# UO-31 = assay: NCI one-dose SRB assay (Renal Cancer); settings: for Growth Percent: UO-31, 1.00E-5 Molar
# Protocol: as §1, §2
# DU-145 = assay: NCI one-dose SRB assay (Prostate); settings: for Growth Percent: DU-145, 1.00E-5 Molar
# Protocol: as §1, §2
# PC-3 = assay: NCI one-dose SRB assay (Prostate); settings: for Growth Percent: PC-3, 1.00E-5 Molar
# Protocol: as §1, §2
# [1] = Homo sapiens, 10 μM, read-out: Percentage growth inhibition (GI%)
compound,measurement,setting,value
"1-(4-Chloro-4-(trifluoromethyl)cyclohexa-2,5-dien-1-yl)-3-(6-(3,4-dimethoxyphenyl)-2-methylpyridin-3-yl)urea [Compound 8l]",Mean Growth Percent,NCI 58 cell line panel,68.99%
same,Percentage growth inhibition (GI%),CCRF-CEM; 10 μM,45%
same,Growth Percent,CCRF-CEM,55.04%
same,Percentage growth inhibition (GI%),HL-60(TB); 10 μM,48%
same,Growth Percent,HL-60(TB),52.58%
same,Percentage growth inhibition (GI%),"K-562; K-562, 10 μM",51%
same,Growth Percent,K-562,49.47%
same,Percentage growth inhibition (GI%),"MOLT-4; MOLT-4, 10 μM",57%
same,Growth Percent,MOLT-4,43.68%
same,Percentage growth inhibition (GI%),"RPMI-8226; RPMI-8226, 10 μM",57%
same,Growth Percent,RPMI-8226,43.88%
same,Percentage growth inhibition (GI%),SR; 10 μM,40%
same,Growth Percent,SR,60.09%
same,Percentage growth inhibition (GI%),A549/ATCC; 10 μM,56%
same,Growth Percent,A549/ATCC,44.62%
same,Percentage growth inhibition (GI%),EKVX; 10 μM,33%
same,Growth Percent,EKVX,67.30%
same,Percentage growth inhibition (GI%),"HOP-62; HOP-62, 10 μM",23%
same,Growth Percent,HOP-62,77.10%
same,Percentage growth inhibition (GI%),"HOP-92; HOP-92, 10 μM",30%
same,Growth Percent,HOP-92,70.53%
same,Percentage growth inhibition (GI%),"NCI-H226; NCI-H226, 10 μM",28%
same,Growth Percent,NCI-H226,72.73%
same,Percentage growth inhibition (GI%),"NCI-H23; NCI-H23, 10 μM",29%
same,Growth Percent,NCI-H23,71.36%
same,Percentage growth inhibition (GI%),NCI-H322M; 10 μM,13%
same,Growth Percent,NCI-H322M,87.05%
same,Percentage growth inhibition (GI%),"NCI-H460; NCI-H460, 10 μM",48%
same,Growth Percent,NCI-H460,52.19%
same,Percentage growth inhibition (GI%),"NCI-H522; NCI-H522, 10 μM",57%
same,Growth Percent,NCI-H522,43.02%
same,Percentage growth inhibition (GI%),LOX IMVI; 10 μM,22%
same,Growth Percent,LOX IMVI,78.57%
same,Percentage growth inhibition (GI%),MALME-3M; 10 μM,10%
same,Growth Percent,MALME-3M,90.89%
same,Percentage growth inhibition (GI%),"SK-MEL-28; SK-MEL-28, 10 μM",27%
same,Growth Percent,SK-MEL-28,73.58%
same,Percentage growth inhibition (GI%),"UACC-257; UACC-257, 10 μM",44%
same,Growth Percent,UACC-257,56.26%
same,Percentage growth inhibition (GI%),"786-0; 786-0, 10 μM",25%
same,Growth Percent,786-0,75.10%
same,Percentage growth inhibition (GI%),"A498; A498, 10 μM",43%
same,Growth Percent,A498,57.69%
same,Percentage growth inhibition (GI%),"RXF 393; RXF 393, 10 μM",28%
same,Growth Percent,RXF 393,72.65%
same,Percentage growth inhibition (GI%),SN12C; 10 μM,22%
same,Growth Percent,SN12C,78.52%
same,Percentage growth inhibition (GI%),"TK-10; TK-10, 10 μM",12%
same,Growth Percent,TK-10,88.19%
same,Percentage growth inhibition (GI%),"UO-31; UO-31, 10 μM",28%
same,Growth Percent,UO-31,72.37%
same,Percentage growth inhibition (GI%),"DU-145; DU-145, 10 μM",20%
same,Growth Percent,DU-145,80.60%
same,Percentage growth inhibition (GI%),"PC-3; PC-3, 10 μM",67%
same,Growth Percent,PC-3,33.54%
"COc1ccc(-c2ccc(NC(=O)Nc3cccc(Cl)c3)c(C)n2)cc1OC [Compound 8j, 1-(3-Chlorophenyl)-3-(6-(3,4-dimethoxyphenyl)-2-methylpyridin-3-yl) Urea]",inhibition at 10 µM,"NCI 58 cell line panel; Homo sapiens, 10 μM, one dose, read-out: mean inhibition (mean % growth inhibition over NCI 58 cell line panel)",22 to 34%
same,Mean Growth Percent,NCI 58 cell line panel,78.01%
same,Growth Percent,CCRF-CEM,68.29%
same,inhibition at 10 µM,CCRF-CEM; [1],32%
same,Growth Percent,HL-60(TB),63.92%
same,inhibition at 10 µM,HL-60(TB); [1],37%
same,inhibition at 10 µM,"K-562; Homo sapiens, K562, K-562, 10 μM, read-out: Percentage growth inhibition (GI%)",60%
same,Growth Percent,K-562,40.86%
same,inhibition at 10 µM,"MOLT-4; Homo sapiens, MOLT-4, 10 μM, read-out: Percentage growth inhibition (GI%)",58%
same,Growth Percent,MOLT-4,42.64%
same,inhibition at 10 µM,"RPMI-8226; Homo sapiens, RPMI-8226, 10 μM, read-out: Percentage growth inhibition (GI%)",49%
same,Growth Percent,RPMI-8226,51.32%
same,Growth Percent,SR,52.07%
same,inhibition at 10 µM,SR; [1],48%
same,Growth Percent,A549/ATCC,61.64%
same,inhibition at 10 µM,A549/ATCC; [1],39%
same,Growth Percent,EKVX,83.81%
same,inhibition at 10 µM,EKVX; [1],17%
same,Growth Percent,HOP-62,77.77%
same,inhibition at 10 µM,"HOP-62; Homo sapiens, HOP-62, 10 μM, read-out: Percentage growth inhibition (GI%)",23%
same,Growth Percent,HOP-92,60.18%
same,inhibition at 10 µM,"HOP-92; Homo sapiens, HOP-92, 10 μM, read-out: Percentage growth inhibition (GI%)",40%
same,inhibition at 10 µM,"NCI-H226; Homo sapiens, NCI-H226, 10 μM, read-out: Percentage growth inhibition (GI%)",< 10%
same,Growth Percent,NCI-H226,91.65%
same,inhibition at 10 µM,"NCI-H23; Homo sapiens, NCI-H23, 10 μM, read-out: Percentage growth inhibition (GI%)",11%
same,Growth Percent,NCI-H23,89.49%
same,Growth Percent,NCI-H322M,85.92%
same,inhibition at 10 µM,NCI-H322M; [1],15%
same,inhibition at 10 µM,"NCI-H460; Homo sapiens, NCI-H460, 10 μM, read-out: Percentage growth inhibition (GI%)",17%
same,Growth Percent,NCI-H460,83.94%
same,inhibition at 10 µM,"NCI-H522; Homo sapiens, NCI-H522, 10 μM, read-out: Percentage growth inhibition (GI%)",41%
same,Growth Percent,NCI-H522,59.88%
same,Growth Percent,LOX IMVI,80.89%
same,inhibition at 10 µM,LOX IMVI; [1],20%
same,Growth Percent,MALME-3M,98.93%
same,inhibition at 10 µM,MALME-3M; [1],< 10%
same,inhibition at 10 µM,"SK-MEL-28; Homo sapiens, SK-MEL-28, 10 μM, read-out: Percentage growth inhibition (GI%)",21%
same,Growth Percent,SK-MEL-28,79.52%
same,inhibition at 10 µM,"UACC-257; Homo sapiens, UACC-257, 10 μM, read-out: Percentage growth inhibition (GI%)",29%
same,Growth Percent,UACC-257,71.26%
same,Growth Percent,786-0,71.87%
same,inhibition at 10 µM,"786-0; Homo sapiens, 786-0, 10 μM, read-out: Percentage growth inhibition (GI%)",29%
same,Growth Percent,A498,69.84%
same,inhibition at 10 µM,"A498; Homo sapiens, A498, 10 μM, read-out: Percentage growth inhibition (GI%)",31%
same,inhibition at 10 µM,"RXF 393; Homo sapiens, RXF 393, 10 μM, read-out: Percentage growth inhibition (GI%)",18%
same,Growth Percent,RXF 393,82.62%
same,Growth Percent,SN12C,86.84%
same,inhibition at 10 µM,SN12C; [1],14%
same,inhibition at 10 µM,"TK-10; Homo sapiens, TK-10, 10 μM, read-out: Percentage growth inhibition (GI%)",< 10%
same,Growth Percent,TK-10,99.31%
same,inhibition at 10 µM,"UO-31; Homo sapiens, UO-31, 10 μM, read-out: Percentage growth inhibition (GI%)",21%
same,Growth Percent,UO-31,79.44%
same,Growth Percent,DU-145,101.79%
same,inhibition at 10 µM,"DU-145; Homo sapiens, DU-145, 10 μM, read-out: Percentage growth inhibition (GI%)",< 10%
same,inhibition at 10 µM,"PC-3; Homo sapiens, PC-3, 10 μM, read-out: Percentage growth inhibition (GI%)",61%
same,Growth Percent,PC-3,39.30%

# From paper PMC6100082, “Pyridine-Ureas as Potential Anticancer Agents: Synthesis and In Vitro Biological Evaluation” (Molecules : A Journal of Synthetic Chemistry and Natural …, 2018)
